Structures are written as SMILES.

In one assay the test system is LDH-A. The assay can be described thus: Western blot of LDH-A phosphorylation in K562 cells after treatment. In kind it is cell-based. Conditions: imatinib treatment, 24 hours. The source says:
Imatinib was purchased from Cayman Chemical.
(In general: In western blotting, separated proteins are transferred to a membrane and probed.)

Assay [1] relates to K562 cells. The assay can be described thus: Lactate concentration (pool size) in cell culture media by conventional high-field NMR spectrometer. In kind it is cell-based. Conditions: 1 μM imatinib. Here is the method: Each lactate signal was acquired by a conventional high-field NMR spectrometer. All measurements were performed in triplicate. Error bars show the standard deviation.

In assay [2] the test system is K562 cells. Conditions: 24 hours of drug treatment, concentrations as high as 1 μM.
Description: K562 cells were plated with a concentration of 100,000 cells/mL in 10 mL complete RPMI media. […] Two sets of four flasks (two flasks per each sample) were prepared and stored in an incubator for 24 hours. Cell number and viability were checked after 24 hours, and cells were washed with complete RPMI media once and prepared for hyperpolarization experiments.
The cell number and the viability were measured using CELLOMETER Mini cell counter (Nexcelom Bioscience); the cell suspension was mixed at 1:1 ratio with the trypan blue solution before the measurement. For each measurement, the cell suspension was diluted to make its concentration within a range of 0.8-2×10^6/mL.

Turning to `Cc1ccc(NC(=O)c2ccc(CN3CCN(C)CC3)cc2)cc1Nc1nccc(-c2cccnc2)n1` [imatinib, Imatinib], the “phosphorylation of LDH-A” value in the assay with LDH-A is “decreased phosphorylation”. Further, in the assay on K562 cells [1], the “time required to make a significant change in the lactate pool size” value was “about 12 hours”. Besides, the cell viability result in the assay on K562 cells [2] is on record as “not significantly changed”.

(Values after patent US10921397B2, “Hyperpolarized micro-NMR system and methods” (Memorial Sloan Kettering Cancer Center, priority 2016, dated 2021).)
